Where two headings read alike, the source gives them in different places.

Usually Ki stands for the equilibrium dissociation constant of an inhibitor or competing ligand from its target. The IC50 is the concentration at which inhibition is half-maximal. Read a low IC50 as greater potency.

In the test the target is T1, human NMB receptor (BB1) (Homo sapiens, UniProt P28336).
T1 construct: expressed in transfected cells; membranes prepared from the cells
The test is described as follows: BB1 binding assay ([125I][Tyr4]bombesin displacement, CHO-K1 membranes). As to conditions: for Ki: Table 1, human NMB receptor binding affinity, Ki from IC50 by Cheng-Prusoff, read-out: NMB Ki. Here is the method: In the following experiments, measurement of BB1 and BB2 binding was as follows. CHO-K1 cells stably expressing cloned human NMB (for (BB1 assay) and GRP receptors (for BB2 assay) were routinely grown in Ham's F12 culture medium supplemented with 10% foetal calf serum and 2 mM glutamine. For binding experiments, cells were harvested by trypsinization, and stored frozen at −70° C. in Ham's F12 culture medium containing 5% DMSO until required. On the day of use, cells were thawed rapidly, diluted with an excess of culture medium, and centrifuged for 5 minutes at 2000 g. Cells were resuspended in 50 mM Tris-HCl assay buffer (pH 7.4 at 21° C., containing 0.02% BSA, 40 μg/mL bacitracin, 2 μg/mL chymostatin, 4 μg/mL leupeptin, and 2 μM phosphoramidon), counted, and polytronned (setting 5, 10 sec) before centrifuging for 10 minutes at 28,000 g. The final pellet was resuspended in assay buffer to a final cell concentration of 1.5×10^5/mL. For binding assays, […] aliquots of membranes were incubated with [^125I][Tyr^4]bombesin (<0.1 nM) in the presence and absence of test compounds (final assay volume 250 μL) for 60 minutes and 90 minutes for NMB and GRP receptors, respectively. Nonspecific binding was defined by 1 μM bombesin. Assays were terminated by rapid filtration under vacuum onto Whatman GF/C filters presoaked in 0.2% PEI for >2 hours, and washed 50 mM Tris-HCl (pH 6.9 at 21° C.; 6×1 mL). Radioactivity bound was determined using a gamma counter.
All competition data was analysed using nonlinear regression utilizing iterative curve-plotting procedures in Prism® (GraphPad Software Inc., San Diego, USA). IC50 values were corrected to Ki values using the Cheng-Prusoff equation (Cheng Y., Prusoff W. H., Biochem. Pharmacol. 22: 3099-3108, 1973). obtained are listed in Table 1.

The mark [1] stands for this setting: Table 3, N-acyl derivatives of Intermediate III-7.
The mark [2] stands for this setting: second 'TABLE 4', N-terminal urethane derivatives of Intermediate III-7.

T1 sequence (P28336 whole entry): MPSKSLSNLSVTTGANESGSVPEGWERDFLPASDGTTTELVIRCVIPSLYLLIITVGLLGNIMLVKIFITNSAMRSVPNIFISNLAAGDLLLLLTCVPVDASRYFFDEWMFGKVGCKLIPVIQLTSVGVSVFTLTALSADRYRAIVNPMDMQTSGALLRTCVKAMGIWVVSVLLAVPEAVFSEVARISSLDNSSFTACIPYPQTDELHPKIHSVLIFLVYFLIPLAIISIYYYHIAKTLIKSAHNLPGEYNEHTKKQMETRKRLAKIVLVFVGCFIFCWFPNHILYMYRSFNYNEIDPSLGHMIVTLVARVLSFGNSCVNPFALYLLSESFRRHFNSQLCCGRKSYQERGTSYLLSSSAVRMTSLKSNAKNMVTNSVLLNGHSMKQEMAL

In the case of `C[C@@](Cc1c[nH]c2ccccc12)(Nc1cccc(-c2ccccc2)n1)C(=O)NCC1(c2ccccn2)CCCCC1` [Example 23, (S)-3-(1H-Indol-3-yl)-2-methyl-2-(6-phenyl-pyridin-2-ylamino)-N-(1-pyridin-2-yl-cyclohexylmethyl)-propionamide], the inhibition constant (Ki) was found to be 3370 nM.

Take `C[C@@](Cc1c[nH]c2ccccc12)(NC(=O)c1ccccn1)C(=O)NCC1(c2ccccn2)CCCCC1` [Example 57]: under setting [1], the IC50 turned out to be 3710 nM.

For the molecule `C[C@@](Cc1c[nH]c2ccccc12)(NC(=O)OCc1ccc(Cl)cc1Cl)C(=O)NCC1(c2ccccn2)CCCCC1` [Example 104, {(S)-2-(1H-Indol-3-y1)-1-methyl-1-[(1-pyridin-2-yl-cyclohexylmethyl)-carbamoyl]-ethyl}-carbamic acid 2,4-dichloro-benzyl ester], under setting [2], the IC50 came out at 450 nM.

`C[C@@](Cc1c[nH]c2ccccc12)(NS(=O)(=O)c1cnc(Cl)c(Br)c1)C(=O)NCC1(c2ccccn2)CCCCC1` [Example 161] returned an IC50 of 187 nM.

`C[C@@](Cc1c[nH]c2ccccc12)(NS(=O)(=O)c1cccc2nonc12)C(=O)NCC1(c2ccccn2)CCCCC1` [Example 139] gave an IC50 of 507 nM.

Take `C[C@@](Cc1c[nH]c2ccccc12)(NS(=O)(=O)c1ccc(C#N)cc1)C(=O)NCC1(c2ccccn2)CCCCC1` [Example 133]: the IC50 was 766 nM.

`C[C@@](Cc1c[nH]c2ccccc12)(NS(=O)(=O)c1c(Cl)cc(Cl)cc1Cl)C(=O)NCC1(c2ccccn2)CCCCC1` [Example 148] showed an IC50 of 215 nM.

`Cc1ccc(S(=O)(=O)N[C@@](C)(Cc2c[nH]c3ccccc23)C(=O)NCC2(c3ccccn3)CCCCC2)cc1` [Example 112]: the IC50 is 557 nM.

Turning to `C[C@@](Cc1c[nH]c2ccccc12)(NS(=O)(=O)c1ccc(-c2ccccn2)s1)C(=O)NCC1(c2ccccn2)CCCCC1` [Example 160], the IC50 is 344 nM. Against the preceding molecule, the IC50 is about 1.6-fold lower.

Consider `C[C@@](Cc1c[nH]c2ccccc12)(NS(=O)(=O)c1ccc(Cl)c(C(F)(F)F)c1)C(=O)NCC1(c2ccccn2)CCCCC1` [Example 166], for which the IC50 is 627 nM.

In turn, `Cc1cc(S(=O)(=O)N[C@@](C)(Cc2c[nH]c3ccccc23)C(=O)NCC2(c3ccccn3)CCCCC2)c(Cl)cc1Cl` [Example 165] gave a concentration for half-maximal inhibition (IC50) of 172 nM.

As for `C[C@@](Cc1c[nH]c2ccccc12)(NS(=O)(=O)c1cc([N+](=O)[O-])ccc1Cl)C(=O)NCC1(c2ccccn2)CCCCC1` [Example 147], the IC50 turned out to be 374 nM.

`C[C@@](Cc1c[nH]c2ccccc12)(NS(=O)(=O)c1ccc(Cl)s1)C(=O)NCC1(c2ccccn2)CCCCC1` [Example 128] returned an IC50 of 404 nM.

With `C[C@@](Cc1c[nH]c2ccccc12)(Nc1ccccc1-c1ccccc1)C(=O)NCC1(c2ccccn2)CCCCC1` [Example 21, (S)-2-(Biphenyl-2-ylamino)-3-(1H-indol-3-yl)-2-methyl-N-(1-pyridin-2-yl-cyclohexylmethyl)-propionamide], the inhibition constant Ki came out at 824 nM.

Molecule `C[C@@](Cc1c[nH]c2ccccc12)(NS(=O)(=O)c1ccc2ccccc2c1)C(=O)NCC1(c2ccccn2)CCCCC1` [Example 118] returned an IC50 of 322 nM.

With `C[C@@](Cc1c[nH]c2ccccc12)(NC(=O)c1ccco1)C(=O)NCC1(c2ccccn2)CCCCC1` [Example 60], the IC50 under setting [1] was 1200 nM.

Molecule `CC(C)(C)c1ccc(S(=O)(=O)N[C@@](C)(Cc2c[nH]c3ccccc23)C(=O)NCC2(c3ccccn3)CCCCC2)cc1` [Example 164] gave an IC50 of 406 nM. That is a sub-micromolar value.

Molecule `COc1cc(C)ccc1S(=O)(=O)N[C@@](C)(Cc1c[nH]c2ccccc12)C(=O)NCC1(c2ccccn2)CCCCC1` [Example 159] gave an IC50 of 445 nM.

On to `Cc1nc(S(=O)(=O)N[C@@](C)(Cc2c[nH]c3ccccc23)C(=O)NCC2(c3ccccn3)CCCCC2)cn1C` [Example 144], for which the IC50 is 2480 nM. This IC50 lies about 5.6-fold higher than the previous one.

The molecule `C[C@@](Cc1c[nH]c2ccccc12)(NC(=O)OCc1ccc2ncccc2c1)C(=O)NCC1(c2ccccn2)CCCCC1` [Example 110, {(S)-2-(1H-Indol-3-y1)-1-methyl-1-[(1-pyridin-2-yl-cyclohexylmethyl)-carbamoyl]-ethyl}-carbamic acid quinolin-6-ylmethyl ester] came in with an IC50 under setting [2] of 171 nM.

Molecule `C[C@@](Cc1c[nH]c2ccccc12)(NS(=O)(=O)c1cccc2cccc([N+](=O)[O-])c12)C(=O)NCC1(c2ccccn2)CCCCC1` [Example 146] had an IC50 of 177 nM.

In turn, `C[C@@](Cc1c[nH]c2ccccc12)(NS(=O)(=O)c1ccc(S(C)(=O)=O)cc1)C(=O)NCC1(c2ccccn2)CCCCC1` [Example 163] displayed an IC50 of 1040 nM.

Regarding `C[C@@](Cc1c[nH]c2ccccc12)(NC(=O)c1ccoc1)C(=O)NCC1(c2ccccn2)CCCCC1` [Example 59], the concentration for half-maximal inhibition (IC50) under setting [1] turned out to be 1200 nM. This lies in the single-digit micromolar range.

Consider `CCCCc1ccc(S(=O)(=O)N[C@@](C)(Cc2c[nH]c3ccccc23)C(=O)NCC2(c3ccccn3)CCCCC2)cc1` [Example 168], for which the IC50 worked out at 492 nM.

In turn, `C[C@@](Cc1c[nH]c2ccccc12)(NC(=O)c1cnc2ccccc2n1)C(=O)NCC1(c2ccccn2)CCCCC1` [Example 78, Quinoxaline-2-carboxyiic acid {(S)-2-(1H-indol-3-yl)-1-methyl-1-[(1-pyridin-2-yl-cyclohexylmethyl)-carbamoyl]-ethyl}-amide] came in with an IC50 under setting [1] of 1420 nM.

In turn, `C[C@@](Cc1c[nH]c2ccccc12)(NC(=O)c1ccc2[nH]nnc2c1)C(=O)NCC1(c2ccccn2)CCCCC1` [Example 73, 1H-Benzotriazole-5-carboxylic acid {(S)-2-(1H-indol-3-yl)-1-methyl-1-[(1-pyridin-2-yl-cyclohexylmethyl)-carbamoyl]-ethyl}-amide] displayed an IC50 under setting [1] of 3170 nM.

On to `C[C@@](Cc1c[nH]c2ccccc12)(NS(=O)(=O)c1ccc(S(=O)(=O)c2ccccc2)s1)C(=O)NCC1(c2ccccn2)CCCCC1` [Example 150], for which the IC50 amounted to 297 nM.

In the case of `C[C@@](Cc1c[nH]c2ccccc12)(NS(=O)(=O)c1ccc(Cl)cc1[N+](=O)[O-])C(=O)NCC1(c2ccccn2)CCCCC1` [Example 149], the IC50 was found to be 513 nM.

Molecule `C[C@@](Cc1c[nH]c2ccccc12)(NS(=O)(=O)c1ccc(C(F)(F)F)cc1)C(=O)NCC1(c2ccccn2)CCCCC1` [Example 127] registered a concentration for half-maximal inhibition (IC50) of 553 nM.

Regarding `Cc1cc(C(=O)N[C@@](C)(Cc2c[nH]c3ccccc23)C(=O)NCC2(c3ccccn3)CCCCC2)no1` [Example 62], the IC50 under setting [1] was 4130 nM.

Molecule `COC(=O)c1ccccc1S(=O)(=O)N[C@@](C)(Cc1c[nH]c2ccccc12)C(=O)NCC1(c2ccccn2)CCCCC1` [Example 155] yielded an IC50 of 242 nM. That is a sub-micromolar value.

In turn, `C[C@@](Cc1c[nH]c2ccccc12)(NS(=O)(=O)Cc1ccccc1[N+](=O)[O-])C(=O)NCC1(c2ccccn2)CCCCC1` [Example 142] returned an IC50 of 430 nM.

Consider `C[C@@](Cc1c[nH]c2ccccc12)(NS(=O)(=O)c1ccccc1C(F)(F)F)C(=O)NCC1(c2ccccn2)CCCCC1` [Example 129, (S)-3-(1H-indol-3-yl)-2-methyl-N-(1-pyridin-2-yl-cyclohexylmethyl)-2-(2-trifluoromethyl-benzenesulfonylamino)-propionamide], for which the IC50 was determined as 134 nM.

Regarding `Cn1cccc1C(=O)N[C@@](C)(Cc1c[nH]c2ccccc12)C(=O)NCC1(c2ccccn2)CCCCC1` [Example 63, 1-Methyl-1H-pyrrole-2-carboxylic acid {(S)-2-(1H-indol-3-yl)-1-methyl-1-[(1-pyridin-2-yl-cyclohexylmethyl)-carbamoyl]-ethyl}-amide], the IC50 under setting [1] stood at 4820 nM. In other words, the single-digit micromolar range.

As to `C[C@@](Cc1c[nH]c2ccccc12)(NS(=O)(=O)c1cccc2nsnc12)C(=O)NCC1(c2ccccn2)CCCCC1` [Example 137], the IC50 was 256 nM. This lies in the sub-micromolar range.

`Cc1nn(C)c(Cl)c1S(=O)(=O)N[C@@](C)(Cc1c[nH]c2ccccc12)C(=O)NCC1(c2ccccn2)CCCCC1` [Example 135] gave an IC50 of 1250 nM. This IC50 lies about 4.9-fold higher than the previous one.

`Cn1cnc(S(=O)(=O)N[C@@](C)(Cc2c[nH]c3ccccc23)C(=O)NCC2(c3ccccn3)CCCCC2)c1` [Example 138] yielded an IC50 of 3670 nM. This IC50 is about 2.9-fold higher than that of the molecule before.

Consider `C[C@@](Cc1c[nH]c2ccccc12)(NS(=O)(=O)c1ccc([N+](=O)[O-])cc1[N+](=O)[O-])C(=O)NCC1(c2ccccn2)CCCCC1` [Example 162], for which the IC50 was determined as 475 nM.

The molecule `C[C@@](Cc1c[nH]c2ccccc12)(NS(=O)(=O)c1cccs1)C(=O)NCC1(c2ccccn2)CCCCC1` [Example 119] came in with an IC50 of 232 nM.

`COC(=O)c1sccc1S(=O)(=O)N[C@@](C)(Cc1c[nH]c2ccccc12)C(=O)NCC1(c2ccccn2)CCCCC1` [Example 140] had an IC50 of 167 nM.

As to `CN(C)c1cccc2c(S(=O)(=O)N[C@@](C)(Cc3c[nH]c4ccccc34)C(=O)NCC3(c4ccccn4)CCCCC3)cccc12` [Example 117], the IC50 was determined as 1300 nM.

`Cc1noc(C)c1S(=O)(=O)N[C@@](C)(Cc1c[nH]c2ccccc12)C(=O)NCC1(c2ccccn2)CCCCC1` [Example 136] had an IC50 of 515 nM.
